Results on four compounds are retold here after patent publication US20090280166A1, “FERRITIN AS A THERAPEUTIC TARGET IN ABNORMAL CELLS” (The Penn State Research Foundation, priority 2005, published 2009).

Entries after “also recorded” stand apart in the source; their conditions may differ.

The subject of series [1] is H-ferritin. The series is described as follows: Ferritin in nuclear and cytoplasmic fractions after DFO, alloxan and FAC treatments (Western blot). Type of series: cell-based, human. As to conditions: SW1088 cells. The text has this: FIGS. 9A-9C show nuclear import of ferritin is inhibited by alloxan, whereas cytoplasmic levels of ferritin are not affected. Under resting conditions, SW1088 cells contain ferritin in both nuclear and cytoplasmic compartments. […] The reappearance of ferritin in cytoplasmic and nuclear compartments after DFO treatment (alone) or treatment with DFO+alloxan is affected by the presence of alloxan (alx) and/or FAC in the culture medium. FIG. 9A is a schematic illustration of the experimental procedure, showing the time course of changes in culture conditions. FIG. 9B is a scan of Western blots of nuclear (N) and cytoplasmic (C) extracts of SW1088 cells, resolved by SDS/PAGE. Samples of the nuclear extract contained 20 μg of total protein, whereas samples of the cytoplasmic extract contained […] of total protein. Ferritin was detected with HS-59 mouse monoclonal antibody and horseradish peroxidase-conjugated goat anti-mouse IgG. Lane a, extracts from cells cultured in medium containing 100 μM DFO; lane b, extracts of cells cultured in normal medium; lane c, extracts of cells cultured in 100 μM FAC; lane d, extracts of cells cultured in 100 μM DFO+1 mM alloxan; lane e, extracts of cells cultured in normal medium supplemented with 1 mM alloxan; lane f, extracts of cells cultured in medium supplemented with 100 μM FAC+1 mM alloxan. FIG. 9C is a graph showing a summary of ferritin contents. The relative amounts of ferritin in the nuclear (black bars) and cytoplasmic (striped bars) fractions were measured after an initial treatment with DFO alone or DFO+[…] and a subsequent culture in the presence of DFO alone, normal medium, medium supplemented with FAC, medium supplemented with DFO+alloxan, normal medium+alloxan or normal medium+FAC and alloxan. The relative amounts of ferritin are normalized to the amount of ferritin in the corresponding fractions before the initial DFO treatment.
DFO and alloxan treatments: The iron chelator DFO was used to examine the effect of iron chelation on ferritin localization in the nuclei of astrocytoma cells. Cells were cultured in the presence of 100 μM DFO for 72 h. Alloxan, an inhibitor of O-glycosylation, was used in astrocytoma cell cultures at final concentrations of 0.1 and 1.0 mM. Six cultures were established in parallel and allowed to reach 80% confluence. The first three were treated with 100 μM DFO for 72 h, then rinsed in Hanks balanced salt solution to remove the free DFO and returned to standard medium alone or to a medium containing 0.1 mM FAC (ferric ammonium citrate) or 0.1 mM DFO. After these treatments, culturing was continued for 24 h. Another set of three cultures were treated with 100 μM DFO+1 mM alloxan for 72 h. The cells were rinsed in Hanks balanced salt solution to remove free reagents and returned to standard medium containing 1 mM alloxan or a medium containing 0.1 mM FAC+[…] or a medium containing 100 μM DFO+1 mM alloxan. After these treatments, the culturing was continued for 24 h. At the end of the culture period, cells were harvested and nuclear and cytosolic fractions were prepared as described below.
Nuclear and cytosolic fractions: Plated astrocytoma cells were rinsed in Hanks balanced salts, trypsinized and the cells were collected by centrifugation (800 g for 10 min). The pelleted cells were rinsed twice in ice-cold PBS buffer [0.01 M sodium phosphate (pH 7.4 at 25° C.), 138 mM NaCl and 2.7 mM KCl] and collected by centrifugation. The cell pellets were resuspended in 20 vol. of 10 mM Hepes (pH 7.9 at 25° C.), 1.5 mM MgCl2, 10 mM NaCl and 0.5 mM DTT (dithiothreitol) containing the following protease inhibitors: AEBSF (1 mM), aprotinin (0.8 μM), leupeptin (20 μM), bestatin (40 μM), pepstatin (15 μM) and E-64 (14 μM). Cell suspensions were incubated in ice for 30 min and collected by centrifugation. […]

For series [2], the system named is SW1088 human astrocytoma cells. The series is described as follows: Cell viability assay (MTT) of alloxan-treated cells. Type of series: cell-based. The following applies: alloxan up to 1.0 mM, 96 h. The procedure: (§1) FIG. 10 is a graph showing alloxan inhibits protein O-glycosylation in SW1088 human astrocytoma cells. Cells were grown in triplicate independent cultures in the presence of 0, 100, 500 μM and 1 mM concentrations of alloxan. Aliquots of whole cell lysates from each culture were applied to a nitrocellulose membrane using a vacuum slot blot device. The membrane was blocked in a 5% solution of non-fat dry milk at 21±1° C. for 1 h and incubated overnight with mouse monoclonal anti-O-GlcNAc antibody. Immunocomplexes were detected and quantified. As an internal control for this assay, membrane loadings of 1 (♦), 5 (▪) and 10 (▴) μg of total protein were tested and they gave similar responses to changes in the concentration of alloxan in the original cultures.
(§2) Cell viability assay: Cell viability measurement was performed using the reagent 3-(4,5-dimethylthiazol-2-yl)-2,5-diphenyl-2H-tetrazolium bromide (MTT), obtained from Roche Applied Science (Indianapolis, Ind., U.S.A.). The assay was performed according to the manufacturer's instructions.
(§3) The effect of alloxan on ferritin redistribution is probably due to its influence on protein glycosylation or due to some other currently unknown effect. […] The cells were then harvested and total soluble proteins were analyzed by slot blot for O-glycosylation.

Experiment in series [3]: as above
It is filed as cell-based, human. The following applies: human, SW1088 astrocytoma cells, 1 mM alloxan, read-out: cells remaining viable (MTT). The procedure:
as §1, §2, §3

The subject of series [4] is protein O-glycosylation in SW1088 human astrocytoma cells. The series is described as follows: Detection of O-glycosylated proteins by slot blot with anti-O-GlcNAc antibody. The following applies: SW1088 cells, 0, 0.1, 0.5 and 1.0 mM alloxan for 96 h. Type of series: cell-based. The procedure: FIG. 10 is a graph showing alloxan inhibits protein O-glycosylation in SW1088 human astrocytoma cells. Cells were grown in triplicate independent cultures in the presence of 0, 100, 500 μM and 1 mM concentrations of alloxan. Aliquots of whole cell lysates from each culture were applied to a nitrocellulose membrane using a vacuum slot blot device. The membrane was blocked in a 5% solution of non-fat dry milk at 21±1° C. for 1 h and incubated overnight with mouse monoclonal anti-O-GlcNAc antibody. Immunocomplexes were detected and quantified. […]
Detection of glycosylated proteins: SW1088 cultures were treated with different concentrations of alloxan for 96 h. […] Protein concentrations were measured and aliquots containing 1, 5 and 10 μg of total cell proteins were applied in triplicate to a 0.2 μm nitrocellulose membrane (Amersham Biosciences). […] Immunocomplexes were detected using peroxidase-conjugated goat anti-mouse IgG (Sigma) and visualized with the ECL+kit (Amersham Biosciences). […]
as §3

The target of series [5] is recombinant human H-ferritin (rH-ferritin) (Homo sapiens, UniProt P02794). As to the kind of experiment: Supercoil relaxation assay for iron release from ferritin. It is filed as biochemical. As to conditions: rH-ferritin with or without 1 mM alloxan. The procedure: Supercoil-relaxation assays were performed with pUC19 plasmid DNA (0.5 μg/assay). FIG. 11A is a scan showing electrophoretic profiles of pUC19 DNA incubated in the presence of recombinant H-ferritin (lanes a-e), recombinant H-ferritin+1 mM alloxan (lanes f-j) and 1 mM alloxan alone (lanes k-o). Reaction times were as indicated. Lane p, a sample of the superhelical pUC19 DNA that was not treated with ferritin. Band assignments: R, relaxed circle form; SC, superhelical topoisomers. FIG. 11B is a graph showing the mole fraction of superhelical DNA as a function of the reaction time for samples containing rH-ferritin (♦), rH-ferritin+1 mM alloxan (▪) and 1 mM alloxan alone (▴). Error bars represent S.D. values.
Supercoil relaxation assay: DNA backbone breakage was detected using a superhelical DNA relaxation assay (Tachon, P. (1989) Free Radical Res. Commun. 7, 1-10; Crowe, A. and Morgan, E. H. (1992) Brain Res. 592, 8-16). The reaction mixtures (30 μl) contained covalently closed circular pUC19 DNA (0.5 μg; Sigma) dissolved in 10 mM Hepes (pH 7.5), 50 mM NaCl, 2.5 mM MgCl2 and 2.5 mM DTT. […] The mole fractions of superhelical and relaxed forms were measured by densitometry of photographic negatives of the gels after staining with 0.5 μg/ml ethidium bromide. […]

Series [6] has as its system primary rat astrocytes. As to the kind of experiment: Longevity of transfected astrocytes (MTT). It is filed as cell-based. The procedure: FIG. 15 is a graph showing the results of the longevity of transfected astrocytes versus control. Cells were transfected and then plated at equal density.
Cells were transfected and then plated at equal density. The longevity experiments were performed in two ways. First, cell viability was monitored in cultures in which the media was changed every seven days. In the second experiment, the media was not changed for 30 days to test nutrient deprivation. An MTT assay was performed on randomly selected cell cultures from 24 well plates every two weeks to monitor cell viability. […] The non-transfected astrocytes, however, die at an increased rate compared to the ferritin transfected cells. We have continued the study out to five months on the transfected cells, but none of the non-transfected cells are alive.
Thirdly, the non-NLS ferritin translocated to the nucleus over time.

The subject of series [7] is rat primary astrocytes. As to the kind of experiment: Cytotoxicity of iron compound TMHF on transfected astrocytes (MTT). Type of series: cell-based. As to conditions: three concentrations of TMHF. The protocol: FIG. 16 is a graph showing the cytotoxicity profile of stress factors on rat primarily astrocytes transfected with NLS and non-NLS H ferritin construct. Cytotoxicity was determined by MTT assay after treatment with three different concentrations of soluble iron compound 3,5,5-trimethyl (hexanoyl) ferrocene (TMHF). A total of 12 trials were run in triplicate for each sample and the grand mean and SE are reported.
Cytotoxicity was determined by MTT assay after treatment with three different concentrations of soluble iron compound 3,5,5-trimethyl (hexanoyl) ferrocene (TMHF). A total of 12 trials were run in triplicate for each sample and the grand mean and SE are reported. […] Other common stressors (hydrogen peroxide, cytokines, hypoxia) will also be examined.

The mark [8] stands for this setting: 100 μM DFO+1 mM alloxan in the initial growth period, then fresh medium.

Chain of recombinant human H-ferritin (rH-ferritin) (P02794 whole entry): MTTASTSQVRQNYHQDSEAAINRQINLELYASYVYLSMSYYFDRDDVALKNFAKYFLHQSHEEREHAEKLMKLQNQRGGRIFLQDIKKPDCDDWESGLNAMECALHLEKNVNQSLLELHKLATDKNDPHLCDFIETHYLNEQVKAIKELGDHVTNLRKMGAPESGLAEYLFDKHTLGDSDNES

As to `CC(=O)N(O)CCCCCNC(=O)CCC(=O)N(O)CCCCCNC(=O)CCC(=O)N(O)CCCCCN` [DFO, desferoxamine], the “ferritin content in nuclear and cytoplasmic compartments” value in series [1] (100 μM DFO) is “significantly decreases ferritin content in both compartments”.
Take `O=C1NC(=O)C(=O)C(=O)N1` [alloxan]: the “effect on cell viability” value in series [2] is listed as “did not affect cell viability; also recorded: without significant effects on cell viability”. Also, the viability at 96 h, 1 mM in series [3] turned out to be 87 ± 3%. In series [1] (setting [8]), the “cytoplasmic ferritin after DFO treatment (reappearance)” value is listed as “remained essentially unchanged” and the “reappearance of nuclear ferritin after DFO treatment” value was “inhibited”. Moreover, the “cytoplasmic ferritin after DFO treatment (reappearance)” value in series [1] (100 μM DFO+1 mM alloxan in the initial growth period, then fresh medium, listed as Alloxan) was “no effect”. Also, in series [1] (100 μM FAC+1 mM alloxan), the “FAC-induced increase in nuclear ferritin” value is on record as “blocked” and the “FAC-induced increase of cytoplasmic ferritin” value is on record as “not the increase of cytoplasmic ferritin”. The “disappearance of ferritin from the nuclear fraction when DFO is added” value in series [1] (DFO + alloxan) is given as “does not prevent”. The “total amount of O-glycosylated protein” value in series [4] was “decreases the total amount of O-glycosylated protein in a dose-dependent manner”. For the same compound, in series [5], the “iron release from ferritin (DNA nicking of pUC19)” value is given as “does not effect the rate or amount of iron release from ferritin; also recorded: does not cause a significant release of iron from ferritin”.
In the case of ferric ammonium citrate [FAC], the “increase in nuclear and cytoplasmic ferritin contents relative to levels found in untreated cells” value in series [1] (100 μM FAC added to standard medium after DFO) is “approx. 200%”.
Turning to ferritin, in series [6] (media changed every seven days), the “survival of transfected cells, media changed” value was “three months”. Besides, in series [6] (nutrient deprivation, media not changed), the “survival of transfected cells, media not changed” value was found to be 30 days. In series [7], the “ability of astrocytes to withstand iron induced stress” value is “increases the ability of primary astrocytes to withstand iron induced stress”.
